# Calls of active or inactive are those of the source.
# Legend:
# Beta-galactosidase = Beta-galactosidase (Escherichia coli, UniProt Q8VNN2); experiment: detection-enzyme interference by beta-gal modulators – biochemical, E. coli enzyme, set 3, artefact control for CCR6 antagonist project, dose response (AID 504712); assay type: functional
# Vero = experiment: viability of Vero cells under compound – cytotoxicity control for flavivirus capping enzyme inhibitors (AID 588742); assay type: functional; details: Chlorocebus sabaeus
# [1] = biological target: Intestinal-type alkaline phosphatase (Homo sapiens, UniProt P09923); experiment: Dose Response confirmation of uHTS hits from a small molecule inhibitors of human intestinal alkaline phosphatase via a luminescent assay. [Related pubchem assays (depositor defined):AID2544, AID2574]; assay type: functional
# Sequence of Intestinal-type alkaline phosphatase (P09923 whole entry): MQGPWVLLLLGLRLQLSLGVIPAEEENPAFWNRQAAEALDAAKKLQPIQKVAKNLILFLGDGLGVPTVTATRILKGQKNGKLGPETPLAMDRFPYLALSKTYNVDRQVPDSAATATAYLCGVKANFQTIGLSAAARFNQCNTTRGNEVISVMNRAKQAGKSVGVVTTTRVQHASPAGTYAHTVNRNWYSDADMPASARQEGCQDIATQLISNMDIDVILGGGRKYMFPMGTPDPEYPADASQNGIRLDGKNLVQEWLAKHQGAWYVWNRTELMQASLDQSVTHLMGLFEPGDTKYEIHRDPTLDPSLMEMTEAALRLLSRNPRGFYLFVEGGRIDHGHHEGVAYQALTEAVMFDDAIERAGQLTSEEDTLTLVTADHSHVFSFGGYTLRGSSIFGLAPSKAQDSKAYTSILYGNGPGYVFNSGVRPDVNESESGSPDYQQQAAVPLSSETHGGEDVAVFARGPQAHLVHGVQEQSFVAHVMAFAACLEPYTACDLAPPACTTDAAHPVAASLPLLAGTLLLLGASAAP
# [2] = viability of PTEN-deleted HCT116 cells – cell-based, HCT116 PTEN knockout, dose response (AID 1047); assay type: functional;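 further: HCT116 colon tumor cells with PTEN knocked out; cells exposed to compound for 60 hours before readout; potency for loss of cell viability measured by luminescence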
# [3] = viability of HCT116 lacking mutant beta-catenin – cell-based, human colon tumor, dose response (AID 1045); assay type: functional;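 further: HCT116 colon tumor cells with beta catenin knocked out; cells exposed to compound for 60 hours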
# [4] = NIH3T3 cell viability loss – ATP luminescence, mouse fibroblasts, counter-screen, dose response (AID 2010); assay type: functional, cell-based;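 further: cells exposed to compound for about 90 hours before reading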
# [5] = Trypanosoma cruzi growth suppression in host cells – NIH3T3 host cells, beta-gal luminescence, confirmation (AID 2044); assay type: functional, cell-based;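 further: intracellular parasites grown in NIH/3T3 mouse fibroblasts as host cells; luminescent beta-galactosidase reporter signal from transgenic T. cruzi replicating inside host cells; inhibitors lower the luminescence signal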
# [6] = biological target: G-protein coupled receptor 35 (Homo sapiens, UniProt Q9HC97); experiment: inhibition of zaprinast-stimulated GPR35 beta-arrestin translocation – imaging, U2OS, beta-arrestin-GFP, zaprinast agonist, primary screen (AID 2058); assay type: functional;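 further: antagonist potency meaning inhibition of agonist-induced arrestin redistribution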
# Sequence of G-protein coupled receptor 35 (Q9HC97 whole entry): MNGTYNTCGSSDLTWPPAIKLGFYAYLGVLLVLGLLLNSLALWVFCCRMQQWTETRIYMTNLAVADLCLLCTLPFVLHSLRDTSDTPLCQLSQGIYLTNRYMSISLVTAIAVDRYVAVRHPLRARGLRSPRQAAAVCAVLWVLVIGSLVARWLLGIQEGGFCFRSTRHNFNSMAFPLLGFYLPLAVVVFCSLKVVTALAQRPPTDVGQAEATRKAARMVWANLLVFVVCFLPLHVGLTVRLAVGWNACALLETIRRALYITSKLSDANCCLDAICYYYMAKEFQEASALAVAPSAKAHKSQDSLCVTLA
# [7] = biological target: DNA dC->dU-editing enzyme APOBEC-3G (Homo sapiens, UniProt Q9HC16); experiment: Dose Response confirmation of small molecule APOBEC3G DNA Deaminase Inhibitors via a fluorescence-based single-stranded DNA deaminase assay. [Related pubchem assays (depositor defined):AID493012, AID493028]; assay type: functional
# Sequence of DNA dC->dU-editing enzyme APOBEC-3G (Q9HC16 whole entry): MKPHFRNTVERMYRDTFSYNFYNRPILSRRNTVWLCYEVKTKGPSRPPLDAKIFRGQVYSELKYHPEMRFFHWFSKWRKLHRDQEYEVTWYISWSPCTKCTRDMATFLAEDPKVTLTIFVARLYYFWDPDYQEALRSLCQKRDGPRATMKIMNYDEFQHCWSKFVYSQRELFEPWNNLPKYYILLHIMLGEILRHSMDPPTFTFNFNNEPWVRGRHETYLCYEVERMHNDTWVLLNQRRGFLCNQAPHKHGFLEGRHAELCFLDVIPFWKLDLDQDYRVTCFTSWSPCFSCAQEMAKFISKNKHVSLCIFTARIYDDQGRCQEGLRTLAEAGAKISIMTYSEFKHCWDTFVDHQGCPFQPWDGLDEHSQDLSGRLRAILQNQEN
# [8] = biological target: DNA dC->dU-editing enzyme APOBEC-3A (Homo sapiens, UniProt P31941); experiment: A3A deaminase inhibition for selectivity – biochemical, dose response (AID 504722); assay type: functional
# Sequence of DNA dC->dU-editing enzyme APOBEC-3A (P31941 whole entry): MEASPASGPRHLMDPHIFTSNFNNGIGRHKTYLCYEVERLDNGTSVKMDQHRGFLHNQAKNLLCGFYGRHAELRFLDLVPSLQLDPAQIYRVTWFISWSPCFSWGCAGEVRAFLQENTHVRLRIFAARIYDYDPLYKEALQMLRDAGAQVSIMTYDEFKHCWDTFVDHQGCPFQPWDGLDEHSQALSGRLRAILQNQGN
# cells = assay type: functional, cell-based
# [9] = luciferase reporter signal reduction – luminescence, H4-C neuroglioblastoma cells, dose response (AID 2458); assay type: functional, cell-based;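 further: H4 neuroglioblastoma cells stably carrying a luciferase reporter gene fusion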
# [10] = alpha-synuclein stem-loop luciferase translation blockers – H4 neuroglioma cells, luminescence, confirmation (AID 1988); assay type: functional, cell-based
# [11] = Luminescence Cell-Based Dose Response HTS to Identify Inhibitors of 5'UTR Stem-Loop Driven Prion Protein mRNA Translation in H4 Neuroglioblastoma Cells. [Related pubchem assays: 1827 (Project Summary), 1813 (Primary HTS)]; assay type: functional
# [12] = alpha-synuclein stem-loop translation blockers – luminescence, H4 neuroglioblastoma cells, dose confirmation, confirmation (AID 2454); assay type: functional, cell-based;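 further: H4 neuroglioblastoma cells carrying an alpha-synuclein 5'UTR luciferase reporter; potency for inhibition of the luciferase signal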
# [13] = luciferase reporter signal suppression in cells – H4 neuroglioma cells, luminescence, dose response (AID 1990); assay type: functional, cell-based
# J774.A1 = experiment: Confirmation of image-based Screening Assay for Inhibitors of Phagocytosis. [Related pubchem assays (depositor defined):AID1029, AID1643]; assay type: functional, cell-based; details: Mus musculus
# Sequence of Beta-galactosidase (Q8VNN2 whole entry): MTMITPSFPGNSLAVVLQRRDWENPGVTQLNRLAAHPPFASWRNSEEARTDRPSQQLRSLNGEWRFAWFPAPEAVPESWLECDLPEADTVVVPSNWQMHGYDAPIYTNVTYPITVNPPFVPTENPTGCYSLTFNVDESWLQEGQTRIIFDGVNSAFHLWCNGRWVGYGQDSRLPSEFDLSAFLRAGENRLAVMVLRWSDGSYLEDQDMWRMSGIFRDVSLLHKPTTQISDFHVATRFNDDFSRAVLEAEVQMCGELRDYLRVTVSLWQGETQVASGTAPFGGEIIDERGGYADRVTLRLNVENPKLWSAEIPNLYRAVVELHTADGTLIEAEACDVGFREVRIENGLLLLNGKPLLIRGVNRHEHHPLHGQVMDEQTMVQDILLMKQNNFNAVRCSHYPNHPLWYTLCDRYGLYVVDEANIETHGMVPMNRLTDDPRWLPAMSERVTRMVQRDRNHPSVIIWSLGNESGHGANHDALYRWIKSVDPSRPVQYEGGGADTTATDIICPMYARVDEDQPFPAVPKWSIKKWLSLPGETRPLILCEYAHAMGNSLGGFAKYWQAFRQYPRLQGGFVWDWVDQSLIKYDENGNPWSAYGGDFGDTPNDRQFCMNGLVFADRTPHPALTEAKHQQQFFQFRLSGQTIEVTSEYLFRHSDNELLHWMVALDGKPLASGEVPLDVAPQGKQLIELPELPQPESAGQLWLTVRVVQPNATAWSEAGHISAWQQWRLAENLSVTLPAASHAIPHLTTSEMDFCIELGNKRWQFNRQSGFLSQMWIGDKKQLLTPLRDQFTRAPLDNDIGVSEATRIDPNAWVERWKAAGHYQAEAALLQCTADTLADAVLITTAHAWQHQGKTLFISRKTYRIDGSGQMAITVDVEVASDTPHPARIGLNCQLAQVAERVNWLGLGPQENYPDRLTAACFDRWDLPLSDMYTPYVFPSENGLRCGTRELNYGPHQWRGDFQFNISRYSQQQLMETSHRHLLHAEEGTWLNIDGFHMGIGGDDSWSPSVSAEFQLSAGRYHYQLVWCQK
structure (smiles),measurement,setting,value
O=C(N/N=C/c1cc([N+](=O)[O-])ccc1O)Nc1ccccc1,IC50,Beta-galactosidase,> 66.6 µM (inactive)
same,CC50,Vero,35.1 µM (active)
Cc1ccc(S(=O)(=O)N(CC(=O)Nc2ccc(C)cc2C)C(=O)N2CCN(C)CC2)cc1,IC50,[1],> 100 µM (inactive)
CCOc1ccc(NC(=O)C(C)Oc2ccccc2C(=O)Nc2ccc(C)c(Cl)c2)cc1 (configuration not stated),EC50,[2],17.9 µM (active)
same,EC50,[3],19.6 µM (active)
same,EC50,[4],> 60 µM (not active)
same,EC50,[5],2.06 µM (active)
same,IC50,[6],1.31 µM (active)
CCc1cc(-c2n[nH]c(=S)n2CC)cs1,IC50,[7],5.02 µM (active)
same,IC50,[8],> 100 µM (inactive)
COc1ccc(NS(=O)(=O)c2cc(C)ccc2NC(=O)c2cc(C)oc2C)cc1,EC50,cells,1.07 µM (active)
same,EC50,[9],0.651 µM (active)
same,EC50,[10],< 0.1 µM (active)
same,EC50,[11],0.173 µM (active)
same,EC50,[12],1.11 µM (active)
same,EC50,[13],7.02 µM (active)
same,IC50,J774.A1,0.0632 µM (active)

# From ChEMBL document CHEMBL1201862, “PubChem BioAssay data set” (2004)
